In brackets after ≈: the same amount, converted by molar mass.
Columns and labels:
Type in all cases: functional
[1] = tested on: Mycobacterium tuberculosis; test: Antitubercular activity against bedaquiline resistant Mycobacterium tuberculosis H37Rv after 24 hrs by MABA method
[2] = tested on: Mycobacterium tuberculosis; test: Antitubercular activity against isoniazid resistant Mycobacterium tuberculosis H37Rv ATCC 35822 after 24 hrs by MABA method; conditions: H37Rv ATCC 35822, 24 h
[3] = tested on: Mycobacterium tuberculosis; test: Antitubercular activity against rifampicin resistant Mycobacterium tuberculosis H37Rv ATCC 35838 after 24 hrs by MABA method; conditions: H37Rv ATCC 35838, 24 h
[4] = tested on: Mycobacterium tuberculosis; test: Antitubercular activity against streptomycin resistant Mycobacterium tuberculosis H37Rv ATCC 35820 after 24 hrs by MABA method; conditions: H37Rv ATCC 35820, 24 h
[5] = tested on: Mycobacterium tuberculosis; test: Antitubercular activity against moxifloxacin resistant Mycobacterium tuberculosis H37Rv after 24 hrs by MABA method
[6] = tested on: Mycobacterium tuberculosis; test: Antitubercular activity against capreomycin resistant Mycobacterium tuberculosis H37Rv after 24 hrs by MABA method

SMILES | MIC90 [1] | MIC90 [2] | MIC90 [3] | MIC90 [4] | MIC90 [5] | MIC90 [6]
O=C(N/N=C/c1ccc2no[n+]([O-])c2c1)c1ccncc1 | 1.2 µM (≈ 0.34 µg/mL) | 8.59 µM (≈ 2.43 µg/mL) | 3.78 µM (≈ 1.07 µg/mL) | 17 µM (≈ 4.81 µg/mL) | 5.72 µM (≈ 1.62 µg/mL) | –
NC(=O)c1c(COc2ccc(/C=N/NC(=O)c3ccncc3)cc2)no[n+]1[O-] | 6.38 µM (≈ 2.44 µg/mL) | > 262 µM | 1.99 µM (≈ 0.761 µg/mL) | > 262 µM | 0.66 µM (≈ 0.252 µg/mL) | > 262 µM
C[C@@H]1NC(=O)[C@@H](N)CNC(=O)[C@H]([C@H]2CCNC(=N)N2)NC(=O)/C(=C/NC(N)=O)NC(=O)[C@H](CNC(=O)C[C@@H](N)CCCN)NC1=O | – | – | – | 1.72 µM (≈ 1.12 µg/mL) | – | 60.5 µM (≈ 39.5 µg/mL)
NC(=O)c1c(COc2ccccc2/C=N/NC(=O)c2ccncc2)no[n+]1[O-] | 0.81 µM (≈ 0.31 µg/mL) | > 262 µM | 0.44 µM (≈ 0.168 µg/mL) | 27.4 µM (≈ 10.5 µg/mL) | 0.81 µM (≈ 0.31 µg/mL) | > 262 µM
NC(=O)c1c(COc2cccc(/C=N/NC(=O)c3ccncc3)c2)no[n+]1[O-] | 2.56 µM (≈ 0.979 µg/mL) | > 262 µM | 2.31 µM (≈ 0.883 µg/mL) | > 262 µM | 1.22 µM (≈ 0.466 µg/mL) | > 262 µM
COc1nc2ccc(Br)cc2cc1[C@@H](c1ccccc1)[C@@](O)(CCN(C)C)c1cccc2ccccc12 [BEDAQUILINE] | 1.7 µM (≈ 0.944 µg/mL) | 0.01 µM (≈ 0.00556 µg/mL) | 0.01 µM (≈ 0.00556 µg/mL) | 0.06 µM (≈ 0.0333 µg/mL) | 0.06 µM (≈ 0.0333 µg/mL) | 0.06 µM (≈ 0.0333 µg/mL)
NNC(=O)c1ccncc1 [ISONIAZID] | 0.23 µM (≈ 0.0315 µg/mL) | > 5 µM | 0.35 µM (≈ 0.048 µg/mL) | > 5 µM | 0.28 µM (≈ 0.0384 µg/mL) | > 5 µM
COc1c(N2C[C@@H]3CCCN[C@@H]3C2)c(F)cc2c(=O)c(C(=O)O)cn(C3CC3)c12 [MOXIFLOXACIN] | 0.26 µM (≈ 0.104 µg/mL) | 0.23 µM (≈ 0.0923 µg/mL) | 0.12 µM (≈ 0.0482 µg/mL) | 0.36 µM (≈ 0.145 µg/mL) | > 8 µM | 0.35 µM (≈ 0.141 µg/mL)
CO[C@H]1/C=C/O[C@@]2(C)Oc3c(C)c(O)c4c(O)c(c(/C=N/N5CCN(C)CC5)c(O)c4c3C2=O)NC(=O)/C(C)=C\C=C\[C@H](C)[C@H](O)[C@@H](C)[C@@H](O)[C@@H](C)[C@H](OC(C)=O)[C@@H]1C [RIFAMPIN] | 0.04 µM (≈ 0.0329 µg/mL) | 0.01 µM (≈ 0.00823 µg/mL) | > 1 µM | 0.03 µM (≈ 0.0247 µg/mL) | – | 0.21 µM (≈ 0.173 µg/mL)
CN[C@@H]1[C@H](O[C@H]2[C@H](O[C@H]3[C@H](O)[C@@H](O)[C@H](N=C(N)N)[C@@H](O)[C@@H]3N=C(N)N)O[C@@H](C)[C@]2(O)C=O)O[C@@H](CO)[C@H](O)[C@H]1O [STREPTOMYCIN] | – | – | – | > 100 µM | – | 2.55 µM (≈ 1.48 µg/mL)

Reference: ChEMBL document CHEMBL4028867, “Design, Synthesis, and Characterization of N-Oxide-Containing Heterocycles with in Vivo Sterilizing Antitubercular Activity” (J Med Chem, 2017)
